Patent publication US20080249174A1, “Animal Model for Studying Atherosclerotic Lesions” (THE RESEARCH FOUNDATION OF STATE UNIVERSITY OF NEW YORK, priority 2005, published 2008)

Assays:
SPT = molecular target: T1, SPT (Mus musculus, UniProt O35704+P97363); experiment: SPT activity in liver of myriocin-treated apoE KO mice; assay type: in vivo; settings: myriocin 0.3 mg/kg intraperitoneally every other day for 8 weeks
T1 construct: myriocin treated mice had 50% less SPT activity in the liver than the controls; from tissue; host or cells: liver of apoE KO mice (The Jackson Laboratory) treated in vivo with myriocin
T1 sequence (O35704 1-473): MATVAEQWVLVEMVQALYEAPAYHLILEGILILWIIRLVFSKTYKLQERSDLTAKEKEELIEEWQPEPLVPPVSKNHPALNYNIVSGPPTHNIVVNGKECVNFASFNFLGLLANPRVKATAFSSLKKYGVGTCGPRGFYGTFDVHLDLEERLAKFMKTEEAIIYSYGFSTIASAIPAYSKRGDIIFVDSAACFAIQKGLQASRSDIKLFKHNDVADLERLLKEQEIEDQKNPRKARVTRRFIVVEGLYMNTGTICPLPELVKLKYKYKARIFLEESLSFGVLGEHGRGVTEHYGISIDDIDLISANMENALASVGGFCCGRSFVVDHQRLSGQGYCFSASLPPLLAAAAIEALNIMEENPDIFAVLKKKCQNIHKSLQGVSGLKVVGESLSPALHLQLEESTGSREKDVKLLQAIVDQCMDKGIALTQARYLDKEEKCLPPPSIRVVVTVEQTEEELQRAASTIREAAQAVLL
T1 sequence (P97363 1-560): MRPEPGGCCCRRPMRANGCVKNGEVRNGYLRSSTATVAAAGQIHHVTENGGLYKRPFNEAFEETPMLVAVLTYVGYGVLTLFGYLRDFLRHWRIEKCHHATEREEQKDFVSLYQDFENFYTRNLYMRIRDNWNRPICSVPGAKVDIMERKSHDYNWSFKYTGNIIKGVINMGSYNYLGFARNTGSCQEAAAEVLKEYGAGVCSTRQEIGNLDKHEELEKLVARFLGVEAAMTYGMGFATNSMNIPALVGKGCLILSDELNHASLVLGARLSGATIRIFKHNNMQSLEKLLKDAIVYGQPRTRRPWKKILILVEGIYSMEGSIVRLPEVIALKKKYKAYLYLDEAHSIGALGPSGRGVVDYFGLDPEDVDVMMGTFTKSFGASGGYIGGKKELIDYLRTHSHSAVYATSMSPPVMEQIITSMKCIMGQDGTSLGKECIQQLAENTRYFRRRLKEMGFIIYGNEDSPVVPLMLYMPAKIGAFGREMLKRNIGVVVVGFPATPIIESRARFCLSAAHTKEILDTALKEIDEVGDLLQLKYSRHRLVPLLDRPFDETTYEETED
T1 sequence (Q8R207 1-71 partner): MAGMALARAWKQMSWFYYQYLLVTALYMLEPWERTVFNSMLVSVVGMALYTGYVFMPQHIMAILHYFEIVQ
Description: Each mRNA level was expressed as a ratio to β-Actin mRNA. Liver tissues from Sptlc1 and Sptlc2-deficient, as well as wild type, mice were homogenized, and SPT activity was measured with ^3H-serine and palmitoyl-coenzyme A for substrates, as previously described (15).
Eight-week-old apoE KO micewere purchased from The Jackson Laboratory (Bar Harbor, Me.). Myriocin (0.3 mg/kg) (Biomol Research Laboratories Inc.) or phosphate buffered saline was injected intraperitoneally every other day for 8 weeks. The animals were on Purina Rodent Chow (catalog number 5001) or a high fat, high cholesterol diet (20% milk fat and 0.15% cholesterol; Harlan Teklad, Madison, Wis.).
In the present invention, two groups of 8-week-old apoE KO mice were utilized. Group 1 (n=7) and group 2 (n=7) animals were injected with 100 μl of myriocin (0.3 mg/kg) or phosphate-buffered saline, respectively, every other day for 8 weeks. As expected, myriocin treated mice had 50% less SPT activity in the liver than the controls.

apoE KO mice [1] = experiment: Apolipoprotein analysis using SDS-PAGE; assay type: in vivo, mouse
Description: Fasting plasma was collected for fast protein liquid chromatography (FPLC) separation and lipid measurement. Total cholesterol, phospholipids and triglyceride inplasma, and lipoproteins were assayed by enzymatic methods (WakoPure Chemical Industries Ltd., Osaka, Japan). Plasma sphingomyelin was measured as described previously (JBC13). PC concentration was obtained by subtracting SM from total phospholipid concentration. Apolipoprotein analysis using SDS-PAGE was also done as describedpreviously (JBC 14).

apoE KO mice [2] = experiment: Atherosclerotic lesions: aorta root assay and en face assay; assay type: in vivo, mouse; settings: 2 months of myriocin administration, p<0.01; for reduction in mean whole aortic lesion areas compared with controls: en face; for reduction in mean proximal aortic lesion areas compared with controls: root assay
Description: This set of pictures is representative of seven sets. FIGS. 8B and 8C depict quantification of atherosclerotic lesions in the proximal aorta by root assay in mice fed a chow diet (FIG. 8B) or a high fat, high cholesterol diet (FIG. 8C). The procedure for root assay was described previously (JBC 15). FIGS. 8D and 8E depict quantification of atherosclerotic lesions in whole aorta by en face analysis in mice fed a chow diet (FIG. 8D) or a high fat, high cholesterol diet (FIG. 8E). The procedure for en face analysis was described previously (JBC 16). Values are mean ±S.D. *, p<0.001; n=7.
At the end of the myriocin treatment period, the mice were sacrificed, and the hearts and proximal aortas as well as the whole aortas were removed, dissected, and photographed. An aorta root assay and an en face assay were performed as described previously (JBC 15, 16).

In the case of `CCCCCCC(=O)CCCCCC/C=C/C[C@@H](O)[C@H](O)[C@@](N)(CO)C(=O)O` [Myriocin, myriocin], the “less SPT activity in the liver than the controls” value (SPT) is reported as 50%, the “levels of apolipoproteins, including apoB100, apoB48, and apoA-I” value (apoE KO mice [1]; chow diet) is reported as “no significant changes” and the “levels of apolipoproteins, including, apoB48, and apoA-I” value (apoE KO mice [1]; high fat, high cholesterol diet) is reported as “no significant changes”. For the same compound, the “reduction in mean whole aortic lesion areas compared with controls” value (apoE KO mice [2]; Western type diet) was 37%, the “reduction in mean proximal aortic lesion areas compared with controls” value (apoE KO mice [2]; Western type diet) was 39% and the “reduction in mean whole aortic lesion areas compared with controls” value (apoE KO mice [2]; chow diet) was 36%. For the same compound, the “reduction in mean proximal aortic lesion areas compared with controls” value (apoE KO mice [2]; chow diet) was 42%.
